The values below are quoted from earlier work in patent publication US11896701B2, “Method for dyeing keratin material, comprising the use of an organic C1-C6 alkoxy silane and tannic acid” (Henkel AG & Co. KGaA, priority 2019, dated 2024).

Values after ≈ are worked out from the molar mass of the structure shown.

The conditions of this data set: 25° C.

On to `O=S(=O)(O)c1ccc(N=Nc2c(O)ccc3ccccc23)cc1` [Acid Orange 7, 4-[(2-hydroxy-1-naphthyl)azo]benzenesulfonate], for which the solubility in water entry is reported as “more than 7 g/L”.
Regarding `Nc1cc(S(=O)(=O)O)cc2cc(S(=O)(=O)O)c(N=Nc3ccccc3)c(O)c12` [Acid Red 33, 5-amino-4-hydroxy-3-(phenylazo)-naphthalene-2,7-disulphonate], the solubility in water is 2500 µg/mL (≈ 5.9 mM).
Turning to `O=C(O)C1=NN(c2ccc(S(=O)(=O)O)cc2)C(=O)C1N=Nc1ccc(S(=O)(=O)O)cc1` (stereo not shown) [Acid Yellow 23, 4,5-dihydro-5-oxo-1-(4-sulfophenyl)-4-((4-sulfophenyl)azo)-1H-pyrazole-3-carboxylic acid], the “solubility in water (in words)” value was “readily soluble in water”.
As to `O=[N+]([O-])c1cc([N+](=O)[O-])c2ccc(S(=O)(=O)O)cc2c1O` [Acid Yellow 9, 8-hydroxy-5,7-dinitro-2-naphthalenesulfonic acid], the solubility in water result was “above 40 g/L”.
